{"source": "paper PMC3112382", "about": "“Crystal structures of a halophilic archaeal malate synthase from Haloferax volcanii and comparisons with isoforms A and G” (BMC Structural Biology, 2011)", "key": {"[1]": {"target": "T1, H. volcanii malate synthase isoform H (hvMSH) (Haloferax volcanii, UniProt D4GTL2)", "T1 construct": "gene aceB; full-length native enzyme, purified from H. volcanii grown on acetate, no tag; trimer/hexamer equilibrium", "T1 sequence (D4GTL2 1-433)": "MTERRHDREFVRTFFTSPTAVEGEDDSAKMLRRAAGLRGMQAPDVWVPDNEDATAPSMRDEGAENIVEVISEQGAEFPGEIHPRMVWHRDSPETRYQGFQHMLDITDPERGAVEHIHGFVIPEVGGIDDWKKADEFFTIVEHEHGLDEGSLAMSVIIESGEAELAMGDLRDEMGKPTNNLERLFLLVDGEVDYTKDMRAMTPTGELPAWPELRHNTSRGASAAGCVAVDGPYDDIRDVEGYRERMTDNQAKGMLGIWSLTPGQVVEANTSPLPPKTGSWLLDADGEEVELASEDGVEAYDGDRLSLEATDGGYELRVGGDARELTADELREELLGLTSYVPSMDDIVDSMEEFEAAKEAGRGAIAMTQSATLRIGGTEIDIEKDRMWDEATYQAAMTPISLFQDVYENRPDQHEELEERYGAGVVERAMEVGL", "test": "X-ray crystal structure, […] Å", "format": "binding", "conditions": "~0.15 M acetyl-CoA, ~70 mM pyruvate, 50 mM MgCl2 soak, active site"}, "[2]": {"target": "T1, H. volcanii malate synthase isoform H (hvMSH)", "test": "X-ray crystal structure, […] Å", "format": "binding", "conditions": "~0.1 M glyoxylate and ~0.1 M MgCl2 soak; active site, on Mg2+; second, weak glyoxylate at acetyl-CoA thioester position; low-occupancy complex (3 mM glyoxylate) is 3PUG"}}, "data": [{"molecule": "CC(=O)SCCNC(=O)CCNC(=O)[C@H](O)C(C)(C)COP(=O)(O)OP(=O)(O)OC[C@H]1O[C@@H](n2cnc3c(N)ncnc32)[C@H](O)[C@@H]1OP(=O)(O)O", "note": "[acetyl-coenzyme A]", "values": [{"measurement": "X-ray crystal structure, 1.95 Å", "setting": "[1]; ternary complex with pyruvate", "value": "one molecule of pyruvate, one molecule of acetyl-CoA, one magnesium ion"}]}, {"molecule": "O=CC(=O)O", "note": "[glyoxylate]", "values": [{"measurement": "X-ray crystal structure, 2.51 Å", "setting": "[2]", "value": "One glyoxylate molecule is bound to the Mg2+ at the active site"}]}, {"molecule": "CC(=O)C(=O)O", "note": "[pyruvate]", "values": [{"measurement": "X-ray crystal structure, 1.95 Å", "setting": "[1]; ternary complex with acetyl-CoA, glyoxylate position", "value": "one molecule of pyruvate, one molecule of acetyl-CoA, one magnesium ion"}]}]}
